The values that follow come from patent US20090283050A1, “FEED COMPOSITION AND METHOD FOR BREEDING ANIMALS” (KENKO CORPORATION, priority 2005, published 2009).

For the test, the system named is Salmonella. Briefly: Antimicrobial effect (MIC, MBC) on Salmonella. In kind it is cell-based. Conditions: compared with the other antimicrobial agents tested.

Structures are written as SMILES.

Description: The antimicrobial effects of these samples were evaluated by the determination of Minimum Inhibitory Concentration (MIC) and Minimum Bactericidal Concentration (MBC).
In this connection, bacterial strains used herein were those obtained from enteric canal of broiler chicken.

Take `CC1(C)S[C@@H]2[C@H](NC(=O)[C@H](N)c3ccccc3)C(=O)N2[C@H]1C(=O)O` [Ampicillin]: the “antibacterial effect against Salmonella, in words” value is “quite weak antibacterial effect”.
